According to patent US20100173968A1, “SUB-TYPE SELECTIVE AZABICYCLOALKANE DERIVATIVES” (TARGACEPT, INC., priority 2007, published 2010):
pKi: −log10 of the molar value. Counter-ions that a name gives are not always drawn. Like-named read-outs stand apart in the source and are kept apart here.

Legend:
[1] = molecular target: Human α4β2 (Homo sapiens, UniProt P17787+P43681); experiment: Binding at human α4β2 (Ki); method not described
[2] = molecular target: α7 nAChR Subtype (Rattus norvegicus, UniProt Q05941); experiment: Radioligand binding at α7 nAChR subtype, inhibition of [3H]MLA binding, rat hippocampus membranes (HTS at 5 μM, then Ki); conditions: for inhibition at 5 µM: read-out: α7 HTS outcome (α7 Ki)
[3] = molecular target: α4β2 nAChR Subtype (Rattus norvegicus, UniProt P09483+P12390); experiment: Radioligand binding at α4β2 nAChR subtype, inhibition of [3H]nicotine binding, rat cerebral cortex membranes; conditions: [3H]nicotine 5 nM
Method: The [^3H]nicotine (Specific Activity=81.5 Ci/mmol) was obtained from NEN Research Products. The binding of [^3H]nicotine was measured using a 3 h incubation at 4° C. […] Each filter was washed with ice-cold buffer (3×1 mL).
Each concentration was replicated in triplicate.

[4] = read-out: α7 Ki, [3H]MLA 5 nM, rat hippocampus

α4β2 nAChR Subtype, sequence (P09483 31-630): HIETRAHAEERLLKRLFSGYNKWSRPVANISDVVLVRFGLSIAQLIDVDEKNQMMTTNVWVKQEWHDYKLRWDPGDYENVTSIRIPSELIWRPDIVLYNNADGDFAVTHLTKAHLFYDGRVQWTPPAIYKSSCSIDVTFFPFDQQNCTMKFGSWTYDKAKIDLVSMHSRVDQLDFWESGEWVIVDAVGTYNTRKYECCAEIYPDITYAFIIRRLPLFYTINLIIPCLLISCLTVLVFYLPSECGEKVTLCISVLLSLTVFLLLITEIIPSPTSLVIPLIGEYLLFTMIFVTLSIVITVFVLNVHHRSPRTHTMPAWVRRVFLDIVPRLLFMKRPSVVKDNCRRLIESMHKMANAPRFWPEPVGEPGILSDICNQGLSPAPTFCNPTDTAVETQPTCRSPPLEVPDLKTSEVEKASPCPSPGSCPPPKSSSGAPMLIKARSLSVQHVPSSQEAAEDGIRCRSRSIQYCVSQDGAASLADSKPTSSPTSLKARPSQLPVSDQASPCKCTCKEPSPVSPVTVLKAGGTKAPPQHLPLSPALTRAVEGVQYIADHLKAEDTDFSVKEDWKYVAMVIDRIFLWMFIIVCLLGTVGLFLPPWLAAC
α4β2 nAChR Subtype, sequence (P12390 25-500): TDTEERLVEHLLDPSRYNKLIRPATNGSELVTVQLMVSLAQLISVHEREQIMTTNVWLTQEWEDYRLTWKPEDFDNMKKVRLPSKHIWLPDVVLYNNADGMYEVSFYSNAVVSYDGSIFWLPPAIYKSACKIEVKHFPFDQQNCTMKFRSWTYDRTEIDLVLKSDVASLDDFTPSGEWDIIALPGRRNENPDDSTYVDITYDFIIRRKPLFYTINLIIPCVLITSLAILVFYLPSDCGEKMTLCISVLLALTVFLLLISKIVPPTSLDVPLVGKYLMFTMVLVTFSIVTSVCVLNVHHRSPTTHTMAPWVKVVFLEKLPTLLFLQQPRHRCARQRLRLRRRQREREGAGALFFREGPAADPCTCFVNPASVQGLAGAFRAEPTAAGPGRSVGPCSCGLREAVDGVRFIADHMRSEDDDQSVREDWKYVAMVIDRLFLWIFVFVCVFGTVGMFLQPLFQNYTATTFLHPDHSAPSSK
Human α4β2, sequence (P43681 29-627 limits assumed): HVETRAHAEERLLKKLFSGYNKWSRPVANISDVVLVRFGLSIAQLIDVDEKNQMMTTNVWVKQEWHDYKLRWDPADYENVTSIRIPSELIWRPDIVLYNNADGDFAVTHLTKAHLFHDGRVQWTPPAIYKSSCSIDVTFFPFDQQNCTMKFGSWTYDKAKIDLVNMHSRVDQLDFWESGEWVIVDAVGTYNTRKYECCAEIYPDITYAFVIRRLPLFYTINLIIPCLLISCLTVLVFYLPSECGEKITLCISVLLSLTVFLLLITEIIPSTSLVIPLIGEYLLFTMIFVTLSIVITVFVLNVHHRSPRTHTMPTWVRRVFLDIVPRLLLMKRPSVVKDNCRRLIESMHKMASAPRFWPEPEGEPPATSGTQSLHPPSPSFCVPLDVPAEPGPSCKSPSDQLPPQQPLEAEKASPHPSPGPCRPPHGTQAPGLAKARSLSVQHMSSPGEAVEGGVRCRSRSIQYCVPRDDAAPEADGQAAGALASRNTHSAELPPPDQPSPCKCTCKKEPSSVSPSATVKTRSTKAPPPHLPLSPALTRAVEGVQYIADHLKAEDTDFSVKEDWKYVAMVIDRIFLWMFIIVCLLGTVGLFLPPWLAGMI
Human α4β2, sequence (P17787 26-502): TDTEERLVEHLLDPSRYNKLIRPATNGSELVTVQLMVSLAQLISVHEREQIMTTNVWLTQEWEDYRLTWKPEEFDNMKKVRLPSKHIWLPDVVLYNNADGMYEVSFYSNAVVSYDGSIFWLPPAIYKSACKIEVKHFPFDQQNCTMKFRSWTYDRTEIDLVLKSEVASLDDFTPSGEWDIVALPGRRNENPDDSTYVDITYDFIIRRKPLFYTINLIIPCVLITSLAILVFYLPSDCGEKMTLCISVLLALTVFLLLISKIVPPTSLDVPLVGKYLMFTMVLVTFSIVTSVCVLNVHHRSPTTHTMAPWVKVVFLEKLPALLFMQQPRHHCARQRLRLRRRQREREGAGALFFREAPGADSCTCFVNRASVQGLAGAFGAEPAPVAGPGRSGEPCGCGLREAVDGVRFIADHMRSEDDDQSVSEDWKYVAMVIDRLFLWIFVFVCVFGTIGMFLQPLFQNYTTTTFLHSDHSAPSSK
α7 nAChR Subtype, sequence (Q05941 23-502): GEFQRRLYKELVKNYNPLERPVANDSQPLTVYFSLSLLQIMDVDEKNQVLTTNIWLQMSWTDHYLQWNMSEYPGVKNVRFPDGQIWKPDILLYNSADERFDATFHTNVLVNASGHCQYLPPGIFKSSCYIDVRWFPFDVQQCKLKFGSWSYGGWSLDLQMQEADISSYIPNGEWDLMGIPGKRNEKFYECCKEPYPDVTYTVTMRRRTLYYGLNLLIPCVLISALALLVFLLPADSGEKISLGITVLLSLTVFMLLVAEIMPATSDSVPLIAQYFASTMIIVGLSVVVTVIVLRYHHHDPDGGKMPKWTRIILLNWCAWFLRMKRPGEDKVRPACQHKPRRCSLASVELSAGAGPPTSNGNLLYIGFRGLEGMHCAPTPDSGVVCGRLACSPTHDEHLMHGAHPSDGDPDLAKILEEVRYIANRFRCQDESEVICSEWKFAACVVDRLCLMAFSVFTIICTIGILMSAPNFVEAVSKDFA

Structure (SMILES)	pKi [1]	inhibition at 5 µM [2] [%]	pKi ([3]; read-out: Rat α4β2 Ki)	pKi [2]	pKi [2, 4]	pKi ([3]; Rat α4β2 Ki)
C=CCNC(=O)C1CC2CNCC(C2)C1 (stereo not shown) [N-allyl-3-azabicyclo[3.3.1]nonane-7-carboxamide]	8.37	< 50	7.51			
CCOC(=O)C1C[C@H]2CNC[C@H]2C1 (mixture of isomers) [ethyl 3-azabicyclo[3.3.0]octane-7-carboxylate]	7.76	< 50	7.34			
O=C(OCc1ccoc1)C1C[C@H]2CNC[C@H]2C1 (mixture of isomers) [(furan-3-yl)methyl 3-azabicyclo[3.3.0]octane-7-carboxylate]	7.79	< 50	7.71			
C=CCNC(=O)C1C[C@H]2CNC[C@H]2C1 (mixture of isomers) [N-allyl-3-azabicyclo[3.3.0]octane-7-carboxamide]	6.76		6.38	≤ 5.00		
COC(=O)C1=CC2CNCC2C1.Cl (stereo not shown) [methyl 3-azabicyclo[3.3.0]-oct-6-ene-7-carboxylate hydrochloride]	8.70		8.30			
CC(C)C(=O)C1CC2CNCC(C2)C1 (stereo not shown) [1-(3-azabicyclo[3.3.1]non-7-yl)-2-methyl-1-propanone]	7.10			< 5.00		
C=CCC(C)OC(=O)C1C[C@H]2CNC[C@H]2C1 (mixture of isomers) [pent-4-en-2-yl 3-azabicyclo[3.3.0]octane-7-carboxylate]	7.35				< 5.00	
CC(C)CC(=O)C1C[C@H]2CNC[C@H]2C1 (mixture of isomers) [1-(3-azabicyclo[3.3.0]oct-7-yl)-3-methyl-1-butanone]	8.34	< 50	7.56			
O=C(c1ccco1)[C@@H]1C[C@H]2CNC[C@H]2C1 [trans-2-furanyl(3-azabicyclo[3.3.0]oct-7-yl)methanone]	6.65	< 50				6.33
C#CCN(C)C(=O)C1C[C@H]2CNC[C@H]2C1 (stereo partly shown) [N-methyl-N-prapargyl-3-azabicyclo[3.3.0]octane-7-carboxamide]	7.28		6.86	≤ 5.00		
O=C(c1ccco1)C1CC2CNCC(C2)C1 (stereo not shown) [2-furanyl(3-azabicyclo[3.3.1]non-7-yl)methanone]	6.95			< 5.00		
CCNC(=O)C1CC2CNCC(C2)C1 (stereo not shown) [N-ethyl-3-azabicyclo[3.3.1]nonane-7-carboxamide]	8.19	< 50	7.87			
CC(C)C(=O)C1C[C@H]2CNC[C@H]2C1 (mixture of isomers) [1-(3-azabicyclo[3.3.0]oct-7-yl)-2-methyl-1-propanone]	9.70			5.62		9.52
O=C(OC1CCCC1)C1C[C@H]2CNC[C@H]2C1 (mixture of isomers) [cyclopentyl 3-azabicyclo[3.3.0]octane-7-carboxylate]	7.86	< 50	7.58			
O=C(Nc1ccccc1)C1CC2CNCC(C2)C1 (stereo not shown) [N-phenyl-3-azabicyclo[3.3.1]nonane-7-carboxamide]	7.90	< 50				
O=C(OC1CC=CC1)C1C[C@H]2CNC[C@H]2C1 (mixture of isomers) [cyclopent-3-en-1-yl 3-azabicyclo[3.3.0]octane-7-carboxylate]	7.65		7.23		< 5.00	
CNC(=O)C1C[C@H]2CNC[C@H]2C1 (mixture of isomers) [N-methyl-3-azabicyclo[3.3.0]octane-7-carboxamide]	6.73		7.09	4.56		
O=C(NC1CC1)C1CC2CNCC(C2)C1 (stereo not shown) [N-cyclopropyl-3-azabicyclo[3.3.1]nonane-7-carboxamide]	7.81	< 50	6.15			
O=C(NCC1CC1)C1CC2CNCC(C2)C1 (stereo not shown) [N-(cyclopropylmethyl)-3-azabicyclo[3.3.1]nonane-7-carboxamide]	7.04	< 50	7.16			
CC(C)(C)NC(=O)C1CC2CNCC(C2)C1 (stereo not shown) [N-tert-butyl-3-azabicyclo[3.3.1]nonane-7-carboxamide]	8.15	< 50	7.96			
CCCNC(=O)C1CC2CNCC(C2)C1 (stereo not shown) [N-propyl-3-azabicyclo[3.3.1]nonane-7-carboxamide]	7.98	< 50	7.67			
CC1COCC(C)N1C(=O)C1C[C@H]2CNC[C@H]2C1 (stereo partly shown) [(3-azabicyclo[3.3.0]oct-7-yl)(2,6-dimethylmorpholin-1-yl)methanone]	7.15	< 50	7.24			

Structure (SMILES)	pKi [1]	inhibition at 5 µM [2] [%]	pKi ([3]; read-out: Rat α4β2 Ki)	pKi [2]	pKi [2, 4]	pKi ([3]; Rat α4β2 Ki)
O=C(NCC(F)(F)F)C1CC2CNCC(C2)C1 (stereo not shown) [N-(2,2,2-trifiuoroethyl)-3-azabicyclo[3.3.1]nonane-7-carboxamide]	7.64		7.39		< 5.00	
COCCNC(=O)C1CC2CNCC(C2)C1 (stereo not shown) [N-(2-methoxyethyl)-3-azabicyclo[3.3.1]nonane-7-carboxamide]	6.11	< 50	6.34			
O=C(NCC(F)(F)F)C1C[C@H]2CNC[C@H]2C1.O=C(O)C(F)(F)F (mixture of isomers) [N-(2,2,2-trifluoroethyl)-3-azabicyclo[3.3.0]octane-7-carboxamide trifluoroacetate]	6.58					
CCCCC(=O)[C@@H]1C[C@H]2CNC[C@H]2C1 [trans-1-(3-azabicyclo[3.3.0]oct-7-yl)-1-pentanone]	6.73	< 50	6.97			
O=C(C1C[C@H]2CNC[C@H]2C1)N1CCC[C@H]1CO (mixture of isomers) [(S)-(2-(hydroxymethyl)-1-pyrrolidinyl)(3-azabicyclo[3.3.0]oct-7-yl)methanone]	6.57	< 50	6.27			
O=C(NCCF)C1CC2CNCC(C2)C1 (stereo not shown) [N-(2-fluoroethyl)-3-azabicyclo[3.3.1]nonane-7-carboxamide]	7.87			< 5.00		6.91
CC(=O)C1C[C@H]2CNC[C@H]2C1 (mixture of isomers) [1-(3-azabicyclo[3.3.0]oct-7-yl)-1-ethanone]	7.97		8.14		< 5.00	
O=C(C1C[C@H]2CNC[C@H]2C1)N1CCC[C@@H]1CO (mixture of isomers) [(R)-(2-(hydroxymethyl)-1-pyrrolidinyl)(3-azabicyclo[3.3.0]oct-7-yl)methanone]	6.59	< 50	6.41			
CC(C)OC(=O)C1C[C@H]2CNC[C@H]2C1 (mixture of isomers) [isopropyl 3-azabicyclo[3.3.0]octane-7-carboxylate]	8.11		6.99	< 5.00		
O=C(C1=CC2CNCC2C1)c1ccco1.O=C(O)C(F)(F)F (stereo not shown) [2-furanyl(3-azabicyclo[3.3.0]oct-6-en-7-yl)methanone trifluoroacetate]	8.70					8.10
O=C(c1ccc(F)cc1)C1C[C@H]2CNC[C@H]2C1 (mixture of isomers) [4-fluorophenyl(3-azabicyclo[3.3.0]oct-7-yl)methanone]	6.87	< 50	6.49			
O=C(Nc1cccnc1)C1CC2CNCC(C2)C1 (stereo not shown) [N-(pyridin-3-yl)-3-azabicyclo[3.3.1]nonane-7-carboxamide]	7.33	< 50				
O=C(OC1CCC1)C1C[C@H]2CNC[C@H]2C1 (mixture of isomers) [cyclobutyl 3-azabicyclo[3.3.0]octane-7-carboxylate]	7.09			< 5.00		
O=C(NC1CCC1)C1CC2CNCC(C2)C1 (stereo not shown) [N-(cyclobutyl)-3-azabicyclo[3.3.1]nonane-7-carboxamide]	6.51	< 50	6.87			
O=C(c1occc1Br)C1C[C@H]2CNC[C@H]2C1 (mixture of isomers) [3-bromofuran-2-yl(3-azabicyclo[3.3.0]oct-7-yl)methanone]	9.05	< 50	8.55			
CN(C)C(=O)[C@H]1C[C@H]2CNC[C@H]2C1 [cis-N,N-dimethyl-3-azabicyclo[3.3.0]octane-7-carboxamide]	5.87	< 50				
CC(C)OCC(=O)C1C[C@H]2CNC[C@H]2C1.O=C(O)C(F)(F)F (mixture of isomers) [1-(3-Azabicyclo[3.3.0]oct-7-yl)-2-isopropoxy-1-ethanone trifluoroacetate]	6.58		6.37			
CC1COCC(C)N1C(=O)C1=C[C@@H]2CNC[C@@H]2C1 (stereo partly shown) [(3-azabicyclo[3.3.0]oct-6-en-7-yl)(2,6-dimethylmorpholin-1-yl)methanone]	5.77	< 50				
O=C(CF)C1CC2CNCC2C1 (single isomer, unassigned; isomer 1) [1-(3-azabicyclo[3.3.0]oct-7-yl)-2-fluoro-1-ethanone trifluoroacetate cis isomer, 1-(3-azabicyclo[3.3.0]oct-7-yl)-2-fluoro-1-ethanone trifluoroacetate]	8.20		8.17			
O=C(CF)C1CC2CNCC2C1 (single isomer, unassigned; isomer 1) [1-(3-azabicyclo[3.3.0]oct-7-yl)-2-fluoro-1-ethanone trifluoroacetate]	6.75		6.81			
NCCNC(=O)C1CC2CNCC(C2)C1 (stereo not shown) [N-(2-aminoethyl)-3-azabicyclo[3.3.1]nonane-7-carboxamide]	7.28	< 50				
COCC(=O)C1C[C@H]2CNC[C@H]2C1.O=C(O)C(F)(F)F (mixture of isomers) [1-(3-azabicyclo[3.3.0]oct-7-yl)-2-methoxy-1-ethanone trifluoroacetate]	7.51		7.49			
